Patent publication US20240109917A1 (ACTELION PHARMACEUTICALS LTD, priority 2020, published 2024)
Where two headings read alike, the source gives them in different places.

How the values were obtained:
[1] = molecular target: His6-TEV-PDGFRβ (557-1016) (Homo sapiens (Human), UniProt P09619); experiment: PDGFRβ HTRF Assay; format: biochemical; settings: read-out: PDGFR HTRF IC50
Method in brief: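 Human PDGFRβ (557-1016) pre-incubated with compound for 30 min at RT in pH 7.5 HEPES/MgCl2/EGTA/Brij-35/DTT buffer. Reaction started with ATP and TK-biotin peptide, run 3 h at RT, then quenched with EDTA-containing Eu-cryptate antibody/streptavidin-XL665. HTRF 665/620 nm ratio read after 60 min; percent inhibition relative to DMSO and 10 μM imatinib controls.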

PDGFRβ = PDGFRβ (Rattus norvegicus (Rat), UniProt Q05030); experiment: PDGFRβ Cellular Assay (PDGFRb P-Y751 HTRF in A10 cells stimulated with PDGF-BB); format: cell-based
PDGFRβ, sequence (Q05030 32-1097): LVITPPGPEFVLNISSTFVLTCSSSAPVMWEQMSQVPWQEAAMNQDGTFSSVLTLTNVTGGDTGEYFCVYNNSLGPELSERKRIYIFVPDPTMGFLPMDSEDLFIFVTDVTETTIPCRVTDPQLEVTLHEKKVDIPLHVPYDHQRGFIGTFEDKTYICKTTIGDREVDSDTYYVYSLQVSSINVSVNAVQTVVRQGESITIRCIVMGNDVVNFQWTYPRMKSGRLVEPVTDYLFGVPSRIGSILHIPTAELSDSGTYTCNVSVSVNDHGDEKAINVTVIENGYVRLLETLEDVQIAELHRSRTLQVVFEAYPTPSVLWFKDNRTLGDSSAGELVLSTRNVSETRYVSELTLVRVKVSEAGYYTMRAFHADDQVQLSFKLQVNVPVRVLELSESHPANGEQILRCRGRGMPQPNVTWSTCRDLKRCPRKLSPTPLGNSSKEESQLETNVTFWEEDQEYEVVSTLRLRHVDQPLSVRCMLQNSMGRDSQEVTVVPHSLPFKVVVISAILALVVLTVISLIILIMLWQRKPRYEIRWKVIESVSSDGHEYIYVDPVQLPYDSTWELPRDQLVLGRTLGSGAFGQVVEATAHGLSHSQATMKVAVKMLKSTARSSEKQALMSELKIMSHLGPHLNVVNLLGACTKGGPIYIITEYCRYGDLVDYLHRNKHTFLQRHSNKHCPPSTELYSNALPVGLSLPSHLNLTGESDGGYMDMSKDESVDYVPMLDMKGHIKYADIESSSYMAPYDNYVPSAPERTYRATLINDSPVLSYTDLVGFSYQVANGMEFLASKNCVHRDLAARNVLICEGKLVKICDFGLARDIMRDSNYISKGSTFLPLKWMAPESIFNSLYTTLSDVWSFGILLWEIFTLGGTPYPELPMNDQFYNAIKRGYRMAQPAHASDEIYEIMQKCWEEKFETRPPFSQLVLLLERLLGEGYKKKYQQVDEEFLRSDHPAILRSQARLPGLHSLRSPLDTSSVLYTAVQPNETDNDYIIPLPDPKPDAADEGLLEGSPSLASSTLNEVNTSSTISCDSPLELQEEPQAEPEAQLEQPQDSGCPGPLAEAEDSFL
Method in brief: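 Rat A10 cells, plated overnight, were treated with compound for 3 hours, then stimulated with PDGF-BB (working stock 100 ng/mL in 10% FBS medium). After lysis, PDGFRβ P-Y751 was detected by HTRF.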

[2] = molecular target: Tb-labeled inactive PDGFRβ (Homo sapiens (Human), UniProt P09619); experiment: PDGFRβ LanthaScreen Assay; format: binding; settings: read-out: PDGFR Lantha IC50
Tb-labeled inactive PDGFRβ, sequence (P09619 33-1106): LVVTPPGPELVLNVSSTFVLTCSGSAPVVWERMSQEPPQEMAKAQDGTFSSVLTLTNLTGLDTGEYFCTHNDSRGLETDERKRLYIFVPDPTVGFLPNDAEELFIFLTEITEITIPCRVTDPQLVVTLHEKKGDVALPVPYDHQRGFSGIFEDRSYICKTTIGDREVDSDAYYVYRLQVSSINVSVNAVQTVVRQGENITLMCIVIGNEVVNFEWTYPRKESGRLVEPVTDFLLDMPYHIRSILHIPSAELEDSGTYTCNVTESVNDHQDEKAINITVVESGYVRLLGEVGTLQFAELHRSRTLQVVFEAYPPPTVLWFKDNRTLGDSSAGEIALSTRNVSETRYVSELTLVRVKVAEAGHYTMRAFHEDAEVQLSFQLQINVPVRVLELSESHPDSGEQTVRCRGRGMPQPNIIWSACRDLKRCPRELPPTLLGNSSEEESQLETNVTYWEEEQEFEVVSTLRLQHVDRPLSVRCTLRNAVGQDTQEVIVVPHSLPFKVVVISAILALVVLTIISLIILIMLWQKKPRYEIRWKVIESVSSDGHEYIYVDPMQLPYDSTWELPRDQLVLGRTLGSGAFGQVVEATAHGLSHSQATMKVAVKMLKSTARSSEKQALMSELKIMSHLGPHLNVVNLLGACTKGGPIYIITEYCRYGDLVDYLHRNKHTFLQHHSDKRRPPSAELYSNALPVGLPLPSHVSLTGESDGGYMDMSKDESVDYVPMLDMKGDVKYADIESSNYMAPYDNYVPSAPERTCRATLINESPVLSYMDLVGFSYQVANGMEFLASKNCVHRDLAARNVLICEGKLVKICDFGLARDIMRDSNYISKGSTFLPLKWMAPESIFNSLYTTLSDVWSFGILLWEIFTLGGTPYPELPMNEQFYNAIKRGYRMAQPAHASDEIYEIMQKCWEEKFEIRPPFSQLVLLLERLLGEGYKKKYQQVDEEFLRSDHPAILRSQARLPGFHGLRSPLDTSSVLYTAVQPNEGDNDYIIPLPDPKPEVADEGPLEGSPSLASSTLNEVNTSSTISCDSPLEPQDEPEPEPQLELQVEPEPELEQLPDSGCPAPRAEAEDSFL

His6-TEV-PDGFRβ (557-1016), sequence (P09619 557-1016): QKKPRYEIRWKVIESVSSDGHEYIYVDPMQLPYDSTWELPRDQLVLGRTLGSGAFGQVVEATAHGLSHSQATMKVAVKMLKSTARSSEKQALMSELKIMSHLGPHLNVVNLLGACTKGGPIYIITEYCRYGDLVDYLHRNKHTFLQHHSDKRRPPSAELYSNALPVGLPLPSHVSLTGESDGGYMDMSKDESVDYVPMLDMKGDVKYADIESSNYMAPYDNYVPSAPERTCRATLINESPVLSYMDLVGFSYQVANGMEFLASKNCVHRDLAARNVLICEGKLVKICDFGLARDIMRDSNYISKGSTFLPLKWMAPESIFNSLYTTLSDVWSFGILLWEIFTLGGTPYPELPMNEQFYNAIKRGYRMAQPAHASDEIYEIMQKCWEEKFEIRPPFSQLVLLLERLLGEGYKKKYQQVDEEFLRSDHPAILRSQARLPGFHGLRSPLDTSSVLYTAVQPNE

| Structure (SMILES) | IC50 [1] [nM] | IC50 (PDGFRβ; read-out: PDGFR Cellular IC50) [nM] | IC50 [2] [nM] | IC50 (PDGFRβ; PDGFR Cellular IC50) [nM] |
| --- | --- | --- | --- | --- |
| Cc1ncc(NC(=O)CN2CCCC2)cc1NC(=O)c1cnn2cc(-c3cccnc3O)sc12 [Example 312, 2-(2-hydroxypyridin-3-yl)-N-(2-methyl-5-(2-(pyrrolidin-1-yl)acetamido)pyridin-3-yl)pyrazolo[5,1-b]thiazole-7-carboxamide] | 1.8 | 948 | 39.2 | – |
| Cc1ncc(NC(=O)CCN2CCCC2(C)C)cc1NC(=O)c1cnn2cc(-n3ncc4cccnc43)sc12 [Example 260, N-(5-(3-(2,2-dimethylpyrrolidin-1-yl)propanamido)-2-methylpyridin-3-yl)-2-(1H-pyrazolo[3,4-b]pyridin-1-yl)pyrazolo[5,1-b]thiazole-7-carboxamide] | 0.3 | – | 2.1 | 3.1 |
| Cc1ncc(NC(=O)CN2CC(C)(C)C2)cc1NC(=O)c1cnn2cc(-c3cnn(CC4CC4)c3)sc12 [Example 270, 2-(1-(cyclopropylmethyl)-1H-pyrazol-4-yl)-N-(5-(2-(3,3-dimethylazetidin-1-yl)acetamido)-2-methylpyridin-3-yl)pyrazolo[5,1-b]thiazole-7-carboxamide] | 0.4 | 4.8 | 5.4 | – |
| COc1ncccc1-c1cn2ncc(C(=O)Nc3cc(NC(=O)OCC(C)N4CCCC4)cnc3C)c2s1 (stereo not drawn) [Example 255, 2-(pyrrolidin-1-yl)propyl (5-(2-(2-methoxypyridin-3-yl)pyrazolo[5,1-b]thiazole-7-carboxamido)-6-methylpyridin-3-yl)carbamate] | 0.2 | 9.3 | 1.9 | – |
| COc1ncccc1-c1cn2ncc(C(=O)Nc3cc(NC(=O)C[C@H]4CCCN4C(C)C)cnc3C)c2s1 [Example 309, (R)—N-(5-(2-(1-isopropylpyrrolidin-2-yl)acetamido)-2-methylpyridin-3-yl)-2-(2-methoxypyridin-3-yl)pyrazolo[5,1-b]thiazole-7-carboxamide] | 0.2 | 4.2 | 1.5 | – |
| Cc1ncc(NC(=O)C[C@@H]2CCCN2C(C)C)cc1NC(=O)c1cnn2cc(-c3cccnc3O)sc12 [Example 322, (S)-2-(2-hydroxypyridin-3-yl)-N-(5-(2-(1-isopropylpyrrolidin-2-yl)acetamido)-2-methylpyridin-3-yl)pyrazolo[5,1-b]thiazole-7-carboxamide] | 0.7 | 122 | 15.5 | – |
| COCCn1cc(-c2cn3ncc(C(=O)Nc4cc(NC(=O)CN5CCC[C@H]5C)cnc4C)c3s2)cn1 [Example 330, (R)-2-(1-(2-methoxyethyl)-1H-pyrazol-4-yl)-N-(2-methyl-5-(2-(2-methylpyrrolidin-1-yl)acetamido)pyridin-3-yl)pyrazolo[5,1-b]thiazole-7-carboxamide] | 0.6 | 6.8 | 9.6 | – |
| Cc1ncc(NC(=O)CN2CC(C)(C)C2)cc1NC(=O)c1cnn2cc(-c3cnn(CC#N)c3)sc12 [Example 266, 2-(1-(cyanomethyl)-1H-pyrazol-4-yl)-N-(5-(2-(3,3-dimethylazetidin-1-yl)acetamido)-2-methylpyridin-3-yl)pyrazolo[5,1-b]thiazole-7-carboxamide] | 0.7 | 36.2 | 11.1 | – |
| Cc1ncc(NC(=O)CN(C)C2CCOCC2)cc1NC(=O)c1cnn2cc(-c3cnn(C(F)F)c3)sc12 [Example 295, 2-(1-(difluoromethyl)-1H-pyrazol-4-yl)-N-(2-methyl-5-(2-(methyl(tetrahydro-2H-pyran-4-yl)amino)acetamido)pyridin-3-yl)pyrazolo[5,1-b]thiazole-7-carboxamide] | 0.7 | 21.3 | 13.5 | – |
| Cc1ncc(NC(=O)[C@@H]2C[C@H](C)CN2C)cc1NC(=O)c1cnn2cc(-c3cccnc3O)sc12 [Example 316, N-(5-((2S,4S)-1,4-dimethylpyrrolidine-2-carboxamido)-2-methylpyridin-3-yl)-2-(2-hydroxypyridin-3-yl)pyrazolo[5,1-b]thiazole-7-carboxamide] | 1.9 | 58.3 | 21.7 | – |
| Cc1ncc(NC(=O)C(C)N2CCCCCC2)cc1NC(=O)c1cnn2cc(-c3cnn(C)c3)sc12 (stereo not drawn) [Example 306, N-(5-(2-(azepan-1-yl)propanamido)-2-methylpyridin-3-yl)-2-(1-methyl-1H-pyrazol-4-yl)pyrazolo[5,1-b]thiazole-7-carboxamide] | 0.5 | 4.8 | 9 | – |
| Cc1ncc(NC(=O)CN2CC(C)(C)C2)cc1NC(=O)c1cnn2cc(-c3cnn(CC(F)(F)F)c3)sc12 [Example 268, N-(5-(2-(3,3-dimethylazetidin-1-yl)acetamido)-2-methylpyridin-3-yl)-2-(1-(2,2,2-trifluoroethyl)-1H-pyrazol-4-yl)pyrazolo[5,1-b]thiazole-7-carboxamide] | 0.6 | 11.6 | 14.5 | – |
| Cc1ncc(NC(=O)CN2CCC3(CCOC3)C2)cc1NC(=O)c1cnn2cc(-c3cnn(C)c3)sc12 (stereo not drawn) [Example 19, N-(5-(2-(2-oxa-7-azaspiro[4.4]nonan-7-yl)acetamido)-2-methylpyridin-3-yl)-2-(1-methyl-1H-pyrazol-4-yl)pyrazolo[5,1-b]thiazole-7-carboxamide] | 0.7 | 12.9 | 4.2 | – |
| Cc1ncc(NC(=O)CN2CC(C)(C)C2)cc1NC(=O)c1cnn2cc(-c3cnn(CC4COC4)c3)sc12 [Example 263, N-(5-(2-(3,3-dimethylazetidin-1-yl)acetamido)-2-methylpyridin-3-yl)-2-(1-(oxetan-3-ylmethyl)-1H-pyrazol-4-yl)pyrazolo[5,1-b]thiazole-7-carboxamide] | 0.6 | 13.9 | 7.9 | – |
| COCCn1cc(-c2cn3ncc(C(=O)Nc4cc(NC(=O)CN5CCC6(CC6)C5)cnc4C)c3s2)cn1 [Example 326, N-(5-(2-(5-azaspiro[2.4]heptan-5-yl)acetamido)-2-methylpyridin-3-yl)-2-(1-(2-methoxyethyl)-1H-pyrazol-4-yl)pyrazolo[5,1-b]thiazole-7-carboxamide] | 0.4 | – | 3.7 | 3 |
| COCCn1cc(-c2cn3ncc(C(=O)Nc4cc(NC(=O)CN5CCC[C@@H]5C)cnc4C)c3s2)cn1 [Example 325, (S)-2-(1-(2-methoxyethyl)-1H-pyrazol-4-yl)-N-(2-methyl-5-(2-(2-methylpyrrolidin-1-yl)acetamido)pyridin-3-yl)pyrazolo[5,1-b]thiazole-7-carboxamide] | 0.8 | 10.7 | 16.3 | – |
| COc1ncccc1-c1cn2ncc(C(=O)Nc3cc(NC(=O)CN4CCC5(CC5)C4)cnc3C)c2s1 [Example 324, N-(5-(2-(5-azaspiro[2.4]heptan-5-yl)acetamido)-2-methylpyridin-3-yl)-2-(2-methoxypyridin-3-yl)pyrazolo[5,1-b]thiazole-7-carboxamide] | 0.1 | 1.1 | 0.7 | – |
| COCCn1cc(-c2cn3ncc(C(=O)Nc4cc(NC(=O)CN5CCCC5(C)C)cnc4C)c3s2)cn1 [Example 329, N-(5-(2-(2,2-dimethylpyrrolidin-1-yl)acetamido)-2-methylpyridin-3-yl)-2-(1-(2-methoxyethyl)-1H-pyrazol-4-yl)pyrazolo[5,1-b]thiazole-7-carboxamide] | 0.5 | – | 5.6 | 4.4 |
